Source: PMC11255104 (Food Chemistry: X, 2024)

Assay: Pharmacokinetic study in rats after oral administration of MOL extract
Type: in vivo, Sprague-Dawley rats
[1] = male, Sprague-Dawley, rat, plasma, po, 30 g/kg

| Compound | half-life [1] [h] | Cmax [1] [ng/mL] | Tmax [1] [h] | time over which the substance could be detected in plasma (rat plasma, oral MOL extract 30 g/kg) [h] |
| --- | --- | --- | --- | --- |
| O=C(/C=C/c1ccc(O)c(O)c1)O[C@@H]1C[C@](O)(C(=O)O)C[C@@H](O)[C@H]1O [Chlorogenic acid] | 5.06 |  |  |  |
| O=c1c(O[C@@H]2O[C@H](CO)[C@@H](O)[C@H](O)[C@H]2O)c(-c2ccc(O)c(O)c2)oc2cc(O)cc(O)c12 [Isoquercitrin] |  | 643 | 0.24 | ≤ 12 |
